Series [1] has as its system hybridoma KNA14.2. Description: Inhibition against cell proliferation by aminopterin and its compensation by hypoxantin, amount of LDH of living cells. The class given is cell-based. The following applies: for level of compensation of inhibition against cell proliferation by aminopterin: four days' culture, 1×10^5 cells per ml; for compensation of inhibition against cell proliferation by aminopterin: six days' culture, low hypoxantin concentration [A(+), H(0.1+)].
Procedure: In a medium bottle, 0.2 g of Agarose (Takara, L 03 “TaKaRa”) was suspended in 20 ml of ultrapure water (concentration: 1 w/v %). Then, to dissolve the agarose the suspension was heated at 121° C. for 15 minutes in an autoclave (Tomy Seiko, SS-320). A bottle containing the thus-obtained agarose solution was immersed in a water incubator set at 41° C. and the agarose solution was cooled to be 41° C.
While, 10.4 g of a powdery GIBCO™ Medium RPMI 1640 (INVITROGEN CORPORATION, Cat. No. 31800-014) was dissolved in 500 ml of ultrapure water (concentration: about twice the final concentration). This solution was sterilized by making the solution pass through a nitrocellulose filter membrane having a pore size of 0.2 μm. Thus, 2×RPMI 1640 medium solution was prepared.
To 100 ml of the 2×RPMI 1640 medium solution, 100 ml of heat-inactivated bovine fetal serum was added under a aseptic condition. The thus-obtained heat-inactivated bovine fetal serum/2×RPMI 1640 medium solution was poured into four sterile bottles in an amount of 30 ml per bottle. The sterile bottles were immersed in a water incubator set at 41° C. and the medium solutions therein were heated to be 41° C.
The concentration of aminopterin became twice that in the HAT medium.
The concentrations of hypoxanthine and thymidine became twice those in the HAT medium.
To a medium solution containing aminopterin in another sterile bottle, the HT supplements were added in amounts such that their total volume is one-five hundredth ( 1/500) of the total volume of the medium solution containing aminopterin and the HT supplements. The concentrations of hypoxanthine and thymidine became one-fifth of those in a HAT medium. The sterile bottles were continuously heated at 41° C.
Then, at 41° C., 20 ml of the 1 w/v % agarose solution was mixed with 20 ml of medium solution No. 3 under an aseptic condition. By this, concentrations of the culture medium components of RPMI 1640 medium, heat-inactivated bovine fetal serum, aminopterin, and HT supplements, each of which had been prepared in an concentration of twice the final concentration, became one half of their concentrations in medium solution No. 3.
While, 10 ml of ultrapure water which had been sterilized by filtration was added to 10 ml of medium solution No. 3. […] This solution was used as a control solution.
After the mixed solution was poured into the wells, the culture plate was left cooling down for 60 minutes or more under room temperatures. Thus, the mixed solution was gelatinized. Hereafter, the gelatinized mixed solution will be designated as “an aminoprerin/HT-containing agarose gel.”
In each well the layer of the aminoprerin/HT-containing agarose gel was punched out in its center by using a biopsy punch having a diameter of 6 mm to form a hollow.
Into each of the thus-formed hollows, 0.17 ml of the culture medium solution not containing agarose (i.e., the control solution) was poured.

In series [2] the test system is hybridoma KNA14.2. The following applies: method of the present invention; three days; 5×10^5 cells per ml; [A(+), H(+)].
Procedure: The cell culture in Example 3 was repeated except that a hybridoma suspension containing hybridoma KNA14.2 in an amount of 5×10^5 per ml was used instead of the hybridoma suspension containing that hybridoma in an amount of 1×10^6 per ml.
Three days after the culture was started, states of cells that were cultured in a RPMI1640 medium solution containing aminopterin and serum ([A(+), H(−)]) and that were cultured in a RPMI1640 medium solution containing aminopterin, HT supplements, and serum ([A(+), H(+)]) were photographed under a microscope (magnification: ×200).
FIGS. 17 and 18 show cells that were cultured in the RPMI1640 medium solution containing aminopterin and serum ([A(+), H(−)]) and cells that were cultured in the RPMI1640 medium solution containing aminopterin, HT supplements, and serum ([A(+), H(+)]), respectively, by the method of the present invention (culture in a hollow that was formed in a gel).
The nature of series [3]: Diffusion or elution of trypan blue from trypan blue-containing agarose gel to PBS in a hollow. Type of series: physicochemical. The following applies: 0.5 w/v % agarose gel, 37° C., absorbance at 550 nm. The method, then:
To 5 ml of distilled water, 0.05 g of agarose (Takara, L 03 “TaKaRa”) was suspended (concentration: 1 w/v %). Then, to dissolve the agarose the suspension was heated at 121° C. for 15 minutes in an autoclave (Tomy Seiko, SS-320). A bottle containing the thus-obtained agarose solution was immersed in a water incubator set at 41° C. and the agarose solution was cooled to be 41° C.
While, a 0.3% trypan blue-containing 2×PBS solution (phosphate buffered saline, 2×PBS) was prepared. This solution was sterilized by making the solution pass through a nitrocellulose filter membrane having a pore size of 0.2 μm. A bottle containing the sterilized 0.3% trypan blue-containing 2×PBS solution was immersed in a water incubator set at 41° C. and the solution was heated to be 41° C. […]
At appropriate time intervals, 0.02 ml of the PBS (it seemed that this contained trypan blue) in the hollow that had been made in the center of the gel layer in a well of the culture plate was taken out. […] The absorbance of the diluted PBS was determined at a wave length of 550 nm. The background was determined by using a diluted PBS (concentration: ⅕) containing no trypan blue. The value that was obtained by subtracting the absorbance of the background from that of the PBS that had been taken out from the PBS in the hollow and had diluted was specified as a true absorbance of the diluted PBS. […]

Series [4] in a line: Diffusion or elution of IL-2 from IL-2-containing agarose gel to culture medium solution in a hollow (ELISA). The class given is physicochemical. The following applies: 37° C. The method, then: Agarose (Takara, L 03 “TaKaRa”) was added to ultrapure water in a ratio of 1 gram per 100 ml of the water and was suspended (concentration: 1 w/v %). Then, to dissolve the agarose the suspension was heated at 121° C. for 15 minutes in an autoclave (Tomy Seiko, SS-320). A bottle containing the thus-obtained agarose solution was immersed in a water incubator set at 41° C. and the agarose solution was cooled to be 41° C.
While, a powdery GIBCO™ Medium RPMI 1640 (INVITROGEN CORPORATION, Cat. No. 31800-014) (glutamine was contained) was added to ultrapure water in a ratio of 10.4 gram per 500 ml of the water and was dissolved (concentration: about twice the final concentration). This solution was sterilized by making the solution pass through a nitrocellulose filter membrane having a pore size of 0.2 μm. Thus, 2×RPMI 1640 medium solution was prepared.
To 30 ml of this medium solution, 2-mercaptoethanol, penicillin, and streptomycin were added under an aseptic condition in such amounts as to be concentrations of 100 μM, 50 U/ml, and […], respectively. Then, to the thus-obtained solution, 6 ml of heat-inactivated bovine fetal serum was added. To the thus-obtained heat-inactivated bovine fetal serum/2×RPMI 1640 medium solution, interleukin 2 (IL-2, mouse, recombinant, SIGMA I-0523) was added in a ratio of 5 ng per ml of the solution. […]
At appropriate time intervals after the solution was poured into the hollows, from three hollows solutions were taken out in an amount of 0.02 ml per hollow. […] Then, by using mouse IL-2 Elisa Ready-SET-Go! (e-Bioscience, Cat. No. 88-70224-77), IL-2 concentrations of the samples were determined according to the protocol stated in the instruction.
The numerical values of the vertical axis were calculated as follows: After the solutions in the hollows were taken out, the IL-2-containing agarose gel was crushed and a solution was squeezed of the gel. For this solution an IL-2 concentration was determined in the same way as explained above. […]
In general terms: An ELISA detects its analyte on a solid surface through an enzyme-linked reagent.

As for `O=c1[nH]cnc2nc[nH]c12` [hypoxantin, hypoxanthine], the “compensation of inhibition against cell proliferation by aminopterin through the salvage pathway” value in the series on hybridoma KNA14.2 [1] ([A(+), H(0.1+)] and [A(+), H(+)], 1×10^6 cells per ml, two, three and four days, hollows formed in gels) is “compensated”. The “level of compensation of inhibition against cell proliferation by aminopterin” value in the series with hybridoma KNA14.2 [1] (conventional method (ninety-six-well culture plate), [A(+), H(0.1+)] and [A(+), H(+)]) is reported as “about 40%”; in the series with hybridoma KNA14.2 [1] (method of the present invention (hollow formed in a gel), [A(+), H(0.1+)] and [A(+), H(+)]), “about 100%”. Besides, the entries for the “compensation of inhibition against cell proliferation by aminopterin” value with hybridoma KNA14.2 [1] (conventional method) and in the series with hybridoma KNA14.2 [1] (method of the present invention) were “scarecely compensated” and “compensated with hypoxantin in the same level as that in the culture using the hypoxantin in its usual concentration”, respectively. Besides, the “compensation of inhibition against cell proliferation by aminopterin (cell number and states under microscope)” value with hybridoma KNA14.2 [2] is reported as “compensated”.

Consider `Cc1cc(-c2ccc(/N=N/c3c(S(=O)(=O)O)cc4cc(S(=O)(=O)O)cc(N)c4c3O)c(C)c2)ccc1/N=N/c1c(S(=O)(=O)O)cc2cc(S(=O)(=O)O)cc(N)c2c1O` [trypan blue], for which the “concentration of trypan blue in PBS in the hollow relative to the equilibrium value” in series [3] (one hour after incubation started) is given as “above 50%”; in series [3] (three hours after incubation started), “above 80%”.

B1: IL-2: interleukin 2 (IL-2, mouse, recombinant, SIGMA I-0523) (protein, UniProt P04351 21-169, looked up)
Interleukin-2: APTSSSTSSSTAEAQQQQQQQQQQQQHLEQLLMDLQELLSRMENYRNLKLPRMLTFKFYLPKQATELKDLQCLEDELGPLRHVLDLTQSKSFQLEDAENFISNIRVTVVKLKGSDNTFECQFDDESATVVDFLRRWIAFCQSIISTSPQ
As for B1, the “IL-2 concentration of the solution in the hollow relative to the equilibrium value” in series [4] (forty-eight hours after incubation started) is “about 70%”; in series [4] (two hours after incubation started), “about 10%”; in series [4] (within six hours) it was “at least 30%”.

The values are drawn from US7189526B2, “Apparatus for culture, process for preparing apparatus for culture, and culturing method” (Kyokuto Pharmaceutical Industrial Co., Ltd., priority 2002, dated 2007).
